Reference: US20150148551A1, “GENISTEIN FOR REDUCING LEVELS OF STORAGE COMPOUNDS IN THE TREATMENT AND/OR PREVENTION OF LYSOSOMAL STORAGE DISEASES (LSDS)” (3G THERAPEUTICS, INC., priority 2012, published 2015)

Legend:
Format in all cases: cell-based, human
[1] = system: CLN5; assay: DNA microarray, CLN5 expression in fibroblasts exposed to genistein; details: for CLN5 fold change Average: 48 h vs DMSO
Protocol: (§1) The experiments were conducted to characterise the transcriptomic profile of human fibroblast cells exposed to genistein, and in particular to determine the expression of genes encoding lysosomal enzymes involved in metabolism (i.e. synthesis and degradation) of organic substances. The absence or deficiency of these enzymes' activity is responsible for occurrence of various lysosomal storage diseases (LSD) (including MPS). The tested hypothesis assumed that genistein influences the expression of many genes, among which there are genes coding for enzymes required in metabolism of compounds, which are pathologically stored in LSD. The results provide important information regarding genistein action on the molecular level within the range of gene expression modulation by this substance. The experiment was conducted in biological quintuplicates. Human dermal fibroblasts (HDFa) were exposed in vitro for 1, 24 or 48 hours to: 30, 60 or 100 μM of genistein; 0.05% DMSO (K1); or were untreated (control cells) (K2), and total RNA was isolated and analysed.
(§2) Fibroblast cells were grown in Dulbecco (DMEM) medium supplemented with 10% fetal bovine serum (FBS) with the addition of 1% antibiotics and anti-fungal agents at 37° C. in humidified atmosphere of 5% CO2, until the required confluency was obtained.
(§3) To determine the effect of tested compound on the transcriptom of the fibroblast cells, the growth medium was replaced with fresh medium, either non-supplemented (0.05% DMSO), or containing genistein (30, 60 or 100 μM, in 0.05% DMSO). The exposure was done for 1, 24 or 48 hours.
(§4) Total RNA was isolated from fibroblasts using High Pure RNA Isolation Kit according to the protocol and then it was quantitatively evaluated using Quant-It™ RiboGreen® Assay Kit.
(§5) Biotinylated cRNA was prepared using Ambion Total PrepAmp Kit for Illumina arrays.
(§6) Standard hybridization and quantitative image analysis procedures—Illumina hybridization protocol and Illumina scanning protocol, were used.
(§7) Processing of the results was done during data definition, including: background correction (using background subtraction method), normalization (using quantile normalization algorithm with Illumina GenomeStudio software package: gene expression module version 1.9.0) and summarization (using method, which sums the values of signal intensities from a set of probes).

[2] = system: GNPTAB; assay: DNA microarray, GNPTAB expression in fibroblasts exposed to genistein; details: for GNPTAB fold change Average: 48 h vs DMSO
Protocol: as §1, §2, §3, §4, §5, §6, §7

[3] = system: MCOLN1; assay: DNA microarray, MCOLN1 expression in fibroblasts exposed to genistein; details: for MCOLN1 fold change Average: 48 h vs DMSO
Protocol: as §1, §2, §3, §4, §5, §6, §7

[4] = system: CTNS; assay: DNA microarray, CTNS expression in fibroblasts exposed to genistein; details: for CTNS fold change Average: 48 h vs DMSO
Protocol: as §1, §2, §3, §4, §5, §6, §7

[5] = system: ARSG; assay: DNA microarray, ARSG expression in fibroblasts exposed to genistein; details: for ARSG fold change Average: 48 h vs DMSO
Protocol: as §1, §2, §3, §4, §5, §6, §7

[6] = system: ACP2; assay: DNA microarray, ACP2 expression in fibroblasts exposed to genistein; details: for ACP2 fold change Average: 48 h vs DMSO
Protocol: as §1, §2, §3, §4, §5, §6, §7

[7] = system: ACP5; assay: DNA microarray, ACP5 expression in fibroblasts exposed to genistein; details: for ACP5 fold change Average: 48 h vs DMSO
Protocol: as §1, §2, §3, §4, §5, §6, §7

[8] = system: CD164; assay: DNA microarray, CD164 expression in fibroblasts exposed to genistein; details: for CD164 fold change Average: 48 h vs DMSO
Protocol: as §1, §2, §3, §4, §5, §6, §7

[9] = system: SLC11A2; assay: DNA microarray, SLC11A2 expression in fibroblasts exposed to genistein; details: for SLC11A2 fold change Average: 48 h vs DMSO
Protocol: as §1, §2, §3, §4, §5, §6, §7

O=c1c(-c2ccc(O)cc2)coc2cc(O)cc(O)c12 [genistein, 4′,5,7-trihydroxy-3-phenylchromen-4-one]
CLN5 fold change Average ([1]; 60 μM): 1.79 fold change | CLN5 fold change Average 1h100/1hK1 ([1]; 100 μM, 1 h vs 0.05% DMSO): 1.05 fold change | CLN5 fold change Average ([1]; 100 μM): 2.125 fold change | GNPTAB fold change Average 1h30/1hK1 ([2]; 30 μM, 1 h vs 0.05% DMSO): 0.7878 fold change | GNPTAB fold change Average ([2]; 30 μM): 1.6393 fold change | GNPTAB fold change Average 1h60/1hK1 ([2]; 60 μM, 1 h vs 0.05% DMSO): 1.235 fold change | GNPTAB fold change Average 1h100/1hK1 ([2]; 100 μM, 1 h vs 0.05% DMSO): 0.8628 fold change | GNPTAB fold change Average ([2]; 100 μM): 1.872 fold change | MCOLN1 fold change Average 1h30/1hK1 ([3]; 30 μM, 1 h vs 0.05% DMSO): 1.065 fold change | MCOLN1 fold change Average 1h60/1hK1 ([3]; 60 μM, 1 h vs 0.05% DMSO): 1.038 fold change | MCOLN1 fold change Average ([3]; 60 μM): 1.439 fold change | MCOLN1 fold change Average 1h100/1hK1 ([3]; 100 μM, 1 h vs 0.05% DMSO): 1.013 fold change | MCOLN1 fold change Average ([3]; 100 μM): 1.482 fold change | CTNS fold change Average 1h30/1hK1 ([4]; 30 μM, 1 h vs 0.05% DMSO): 1.0024 fold change | CTNS fold change Average ([4]; 30 μM): 1.5216 fold change | CTNS fold change Average 1h60/1hK1 ([4]; 60 μM, 1 h vs 0.05% DMSO): 0.7997 fold change | CTNS fold change Average ([4]; 60 μM): 1.577 fold change | CTNS fold change Average 1h100/1hK1 ([4]; 100 μM, 1 h vs 0.05% DMSO): 0.7964 fold change | CTNS fold change Average ([4]; 100 μM): 1.64 fold change | ARSG fold change Average 1h30/1hK1 ([5]; 30 μM, 1 h vs 0.05% DMSO): 1.083 fold change | ARSG fold change Average ([5]; 30 μM): 1.3921 fold change | ARSG fold change Average 1h60/1hK1 ([5]; 60 μM, 1 h vs 0.05% DMSO): 1.204 fold change | ARSG fold change Average ([5]; 60 μM): 2.488 fold change | ARSG fold change Average 1h100/1hK1 ([5]; 100 μM, 1 h vs 0.05% DMSO): 0.961 fold change | ARSG fold change Average ([5]; 100 μM): 1.81 fold change | ACP2 fold change Average 1h30/1hK1 ([6]; 30 μM, 1 h vs 0.05% DMSO): 1.0116 fold change | ACP2 fold change Average ([6]; 30 μM): 1.0451 fold change | ACP2 fold change Average 1h60/1hK1 ([6]; 60 μM, 1 h vs 0.05% DMSO): 0.95 fold change | ACP2 fold change Average ([6]; 60 μM): 1.063 fold change | ACP2 fold change Average 1h100/1hK1 ([6]; 100 μM, 1 h vs 0.05% DMSO): 0.9804 fold change | ACP2 fold change Average ([6]; 100 μM): 1.147 fold change | ACP5 fold change Average 1h30/1hK1 ([7]; 30 μM, 1 h vs 0.05% DMSO): 0.9865 fold change | ACP5 fold change Average ([7]; 30 μM): 1.6259 fold change | ACP5 fold change Average 1h60/1hK1 ([7]; 60 μM, 1 h vs 0.05% DMSO): 1.066 fold change | ACP5 fold change Average ([7]; 60 μM): 1.7507 fold change | ACP5 fold change Average 1h100/1hK1 ([7]; 100 μM, 1 h vs 0.05% DMSO): 1.141 fold change | ACP5 fold change Average ([7]; 100 μM): 1.763 fold change | CD164 fold change Average 1h30/1hK1 ([8]; 30 μM, 1 h vs 0.05% DMSO): 1.0714 fold change | CD164 fold change Average ([8]; 30 μM): 0.9618 fold change | CD164 fold change Average 1h60/1hK1 ([8]; 60 μM, 1 h vs 0.05% DMSO): 1.49 fold change | CD164 fold change Average 1h100/1hK1 ([8]; 100 μM, 1 h vs 0.05% DMSO): 1.002 fold change | CD164 fold change Average ([8]; 100 μM): 1.282 fold change | SLC11A2 fold change Average 1h30/1hK1 ([9]; 30 μM, 1 h vs 0.05% DMSO): 1.0227 fold change | SLC11A2 fold change Average ([9]; 30 μM): 1.2196 fold change | SLC11A2 fold change Average 1h60/1hK1 ([9]; 60 μM, 1 h vs 0.05% DMSO): 1.053 fold change | SLC11A2 fold change Average ([9]; 60 μM): 1.549 fold change | SLC11A2 fold change Average 1h100/1hK1 ([9]; 100 μM, 1 h vs 0.05% DMSO): 1.056 fold change | SLC11A2 fold change Average ([9]; 100 μM): 1.499 fold change
